We go through one compound from paper PMC11561238, “Discovery and binding mode of small molecule inhibitors of the apo form of human TDO2” (Scientific Reports, 2024).

Broadly, the IC50 is the midpoint of a concentration-inhibition curve.

Structures are written as SMILES.

The target in this test is T1, recombinant human TDO2 (holo-TDO2) (Homo sapiens, UniProt P48775).
T1 construct: a construct encoding amino acids 19–406 of human TDO2 with an N-terminal six histidine tag; PreScission protease cleavage site (linker) (N); made in house; host or cells: E. coli BL21(DE3)
T1 sequence (P48775 19-406): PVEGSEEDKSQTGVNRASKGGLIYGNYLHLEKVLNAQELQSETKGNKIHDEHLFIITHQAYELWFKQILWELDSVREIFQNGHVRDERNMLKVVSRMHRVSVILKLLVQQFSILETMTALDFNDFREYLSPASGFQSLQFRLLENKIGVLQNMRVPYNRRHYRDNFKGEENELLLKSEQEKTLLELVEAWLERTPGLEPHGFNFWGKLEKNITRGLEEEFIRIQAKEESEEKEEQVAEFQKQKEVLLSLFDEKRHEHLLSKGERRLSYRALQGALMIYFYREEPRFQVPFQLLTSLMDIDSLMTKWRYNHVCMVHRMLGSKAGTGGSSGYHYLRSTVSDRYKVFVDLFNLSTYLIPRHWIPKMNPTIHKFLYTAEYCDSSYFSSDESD
As to the kind of experiment: Holo-TDO2 enzymatic assay. The format is biochemical. As for the experimental part:
The IC50 curve is shown in supplementary Fig. S1 online. We speculate that the observed IC50 shift may be due to the kinetics of heme dissociation from holo-TDO2 and/or the absence of alternative heme binding proteins in the assay system. The structurally similar Cpd-2 was not tested in the enzymatic assay.
For the enzymatic assay, recombinant human TDO2 comprising amino acids […] with a N-terminal hexahistidine tag, expressed in Escherichia coli and purified to homogeneity, was incubated in assay buffer consisting of 75 mM phosphate buffer at pH 7.0 supplemented with 100 µM ascorbic acid, 50 U/ml catalase, 0.01% bovine serum albumin (BSA), and 0.01% Tween 20 (protocol modified from[45]).

On to `CCCc1ccccc1NC(=O)N(C(C)c1ccccc1)C1CCCn2c1nc(OC)c(C(=O)OCC)c2=O` (centres unmarked) [Cpd-1, ethyl 9-(3-(2-propylphenyl)-1-(1-phenylethyl)ureido)-2-methoxy-4-oxo-6,7,8,9-tetrahydro-4H-pyrido[1,2-a]pyrimidine-3-carboxylate], for which the IC50 (30 min assay at room temperature after 30 min pre-incubation with holo-TDO2, read-out: enzymatic assay IC50 (holo form of TDO2)) was 17.4 µM. The “fold less potent in enzymatic assay than in the cellular assay” value (enzymatic IC50 vs TDO2 cellular IC50) was determined as 53 fold.
